This note sets out measurements from patent publication US20230288338A1, “LUMINESCENT SUBSTRATE COMPOUND” (NATIONAL INSTITUTE OF ADVANCED INDUSTRIAL SCIENCE AND …, priority 2020, published 2023).

Structures are written as SMILES.

What all share (format): biochemical
Experiment [1] has as its target T1, bovine serum albumin (BSA) (Bos taurus, UniProt P02769).
T1 construct: bovine serum-derived lyophilized powder, Sigma-Aldrich; purchased Sigma-Aldrich; host or cells: purified from bovine serum
In words: Luminescence intensity measurement with bovine serum albumin. To be noted: total luminescence over 60 seconds, normalized against native coelenterazine in HSA set to 1.0; 10 µM substrate solution, 10 mM PB buffer pH 7.4. As for the experimental part: (§1) Human serum albumin (human serum-derived lyophilized powder, Fatty acid free, Globulin free, Sigma-Aldrich), other human protein species or bovine serum albumin (bovine serum-derived lyophilized powder, Sigma-Aldrich) was dissolved in PB Buffer (10 mM, pH 7.4) and used directly for luminescence measurement. As luminescent substrates, NCTZ, DeepBlueC™, MCLA™, control compounds 1 to 3, HuLumino12 and HuLumino22 were used. Each luminescent substrate was dissolved in methanol to give a 2 mM solution. This solution was diluted to 10 µM with 10 mM PB buffer (pH 7.4) for use as a substrate solution. To 90 µL of this solution, 10 µL of 10 mM PB buffer (pH 7.4) containing human serum albumin (HSA) or bovine serum albumin (BSA) was added to initiate a luminescent reaction. The luminescence intensity was measured with a Promega GloMax® 20/20 for 60 seconds, and the results were expressed as total luminescence (Total Luminescence/min) and compared (FIG. 1). […]

For experiment [2], the target named is T2, human serum albumin (HSA) (Homo sapiens, UniProt P02768).
T2 construct: human serum-derived lyophilized powder, Fatty acid free, Globulin free, Sigma-Aldrich; purchased Sigma-Aldrich; host or cells: purified from human serum
T2 sequence (P02768 25-609): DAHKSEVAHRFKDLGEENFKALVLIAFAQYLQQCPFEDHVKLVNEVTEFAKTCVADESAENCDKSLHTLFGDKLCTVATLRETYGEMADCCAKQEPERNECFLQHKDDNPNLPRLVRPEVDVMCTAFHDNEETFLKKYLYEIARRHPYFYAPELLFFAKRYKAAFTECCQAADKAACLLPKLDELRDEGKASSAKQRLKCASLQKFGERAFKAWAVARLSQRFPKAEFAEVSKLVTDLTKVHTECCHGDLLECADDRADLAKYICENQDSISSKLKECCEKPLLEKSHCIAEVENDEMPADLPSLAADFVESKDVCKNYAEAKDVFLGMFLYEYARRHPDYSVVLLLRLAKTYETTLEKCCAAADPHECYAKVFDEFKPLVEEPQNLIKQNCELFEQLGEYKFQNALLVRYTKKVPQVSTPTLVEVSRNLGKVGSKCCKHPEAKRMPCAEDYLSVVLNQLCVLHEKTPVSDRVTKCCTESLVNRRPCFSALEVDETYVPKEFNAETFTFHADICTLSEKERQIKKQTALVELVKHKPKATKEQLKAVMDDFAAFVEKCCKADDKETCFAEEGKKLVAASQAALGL
The experiment is described as follows: Luminescence intensity measurement with human serum albumin. The note with it: for HSA Luminescence intensity: total luminescence over 60 seconds, normalized against native coelenterazine in HSA set to 1.0, 10 µM substrate solution, 10 mM PB buffer pH 7.4. The protocol: as §1

Experiment [3] addresses T2, human serum albumin (HSA). The experiment is described as follows: Luminescence spectrum measurement in the presence of HSA (FIG. 6). As for the experimental part:
FIG. 6 is a graph showing the luminescence wavelength (luminescence spectrum measurement result) of HuLumino12 (a compound according to an example of the present invention) in the presence of human serum albumin (HSA).
The luminescence spectrum was measured with a spectrometer. The peak luminescence wavelength was obtained by being normalized against the peak luminescence intensity which was set to 1.0.

For experiment [4], the target named is T2, human serum albumin (HSA). The experiment is described as follows: Signal to noise ratio of luminescence in the presence of HSA (FIG. 3). To be noted: luminescent reaction with HSA; for S/N ratio: FIG. 3. From the text:
FIG. 3 is a graph showing the luminescence property (signal to noise ratio, S/N ratio) of compounds according to examples of the present invention and comparative examples in the presence of human serum albumin (HSA).

The target of experiment [5] is T2, human serum albumin (HSA). In words: HSA concentration-dependent luminescence intensity, detection limit (FIG. 5). The source says: FIG. 5 is a graph showing the luminescence intensity of HuLumino12 (a compound according to an example of the present invention), which is dependent on the concentration of human serum albumin (HSA).
The target in experiment [6] is T2, human serum albumin (HSA). The experiment is described as follows: Luminescence duration in the presence of HSA (FIG. 4). The note with it: luminescent reaction with HSA. From the text: FIG. 4 is a graph showing the luminescence property (luminescence duration) of HuLumino12 (a compound according to an example of the present invention) in the presence of human serum albumin (HSA).

The target of another experiment is T3, HSA (Homo sapiens, UniProt P02768).
T3 construct: human serum-derived lyophilized powder, Fatty acid free, Globulin free, Sigma-Aldrich; purchased Sigma-Aldrich; host or cells: purified from human serum
T3 sequence (P02768 25-609): as above
In words: Michaelis-Menten constant of luminescent substrate/HSA reaction.

For experiment [7], the system named is various human-derived proteins. In words: Luminescence intensity upon reaction with various human-derived proteins or bovine serum albumin (FIG. 2). The protocol: FIG. 2 is a graph showing the luminescence intensity of HuLumino12 (a compound according to an example of the present invention) upon reaction with various human-derived proteins or bovine serum albumin.
as §1

T1 sequence (P02769 25-607): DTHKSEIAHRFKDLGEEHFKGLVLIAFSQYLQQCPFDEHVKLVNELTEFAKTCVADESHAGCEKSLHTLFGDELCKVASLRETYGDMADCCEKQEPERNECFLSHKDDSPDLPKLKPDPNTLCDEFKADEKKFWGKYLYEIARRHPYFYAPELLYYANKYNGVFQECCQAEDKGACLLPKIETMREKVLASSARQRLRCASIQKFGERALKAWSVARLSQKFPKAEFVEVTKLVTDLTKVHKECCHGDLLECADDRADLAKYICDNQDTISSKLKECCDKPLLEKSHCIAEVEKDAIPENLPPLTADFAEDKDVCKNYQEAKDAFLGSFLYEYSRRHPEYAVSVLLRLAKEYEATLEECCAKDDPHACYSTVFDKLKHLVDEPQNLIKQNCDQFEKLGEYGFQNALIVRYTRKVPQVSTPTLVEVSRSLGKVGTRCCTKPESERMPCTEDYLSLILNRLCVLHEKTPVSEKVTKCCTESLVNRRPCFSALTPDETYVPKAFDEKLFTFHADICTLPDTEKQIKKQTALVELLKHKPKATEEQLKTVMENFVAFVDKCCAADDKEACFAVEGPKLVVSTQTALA

Take `COc1ccc(-c2cn3c(=O)c(Cc4ccccc4)nc-3c[nH]2)cc1` [Control compound 3, reference compound]: the “BSA Luminescence intensity” value in experiment [1] was 34.4. In experiment [2], the “HSA Luminescence intensity” value amounted to 554.
The like results for `O=c1c(Cc2ccccc2)nc2c(Cc3ccccc3)[nH]c(-c3ccccc3)cn1-2` [DeepBlueC™, reference compound] were, in that order, 7.6 and 22.1.
For the molecule `COCCCOc1ccc(-c2cn3c(=O)c(Cc4ccccc4)nc-3c[nH]2)cc1` [HuLumino12, 2-benzyl-6-(4-(3-methoxypropoxy)phenyl)imidazo[1,2-a]pyrazin-3(7H)-one], the “BSA Luminescence intensity” value in experiment [1] is on record as 11.9. Further, the peak luminescence wavelength in experiment [3] is reported as 427 nm. Also, the S/N ratio in experiment [4] was 37. For the same molecule, the “detection limit of HSA detection” value in experiment [5] is 7.4 µg/mL. The luminescence duration in experiment [6] is 3 h. Besides, at HSA, the Michaelis-Menten constant is recorded as 4.2 µM. Besides, the “specificity of luminescent reaction among various human protein species” value in experiment [7] is “specific luminescent reaction when recognized by human serum albumin (HSA)”. Also, the “HSA Luminescence intensity” value in experiment [2] was determined as 912. The “luminescence intensity higher than NCTZ/HSA” value in experiment [2] (with HSA, relative to NCTZ/HSA) amounted to 912 fold.
Consider `O=c1c(Cc2ccc(O)cc2)nc2c(Cc3ccccc3)[nH]c(-c3ccc(O)cc3)cn1-2` [NCTZ, reference compound], for which the “BSA Luminescence intensity” value in experiment [1] amounted to 3.9. Also, the Michaelis-Menten constant at HSA is given as 25.3 µM. Further, in experiment [2], the “HSA Luminescence intensity” value came to 1.0.
On to `O=c1c(Cc2ccccc2)nc2c[nH]c(-c3ccc(O)cc3)cn1-2` [Control compound 2, reference compound], for which the “BSA Luminescence intensity” value in experiment [1] came out at 11.2. In addition, the “HSA Luminescence intensity” value in experiment [2] turned out to be 13.7.
The like results for `COCCCOc1ccc(-c2cn3c(=O)c(C)nc-3c[nH]2)cc1` [HuLumino22, 6-(4-(3-methoxypropoxy)phenyl)-2-methylimidazo[1,2-a]pyrazin-3(7H)-one] were, in that order, 3.1 and 14.2.
The like results for `O=c1c(Cc2ccccc2)nc2c[nH]c(/C=C/c3ccccc3)cn1-2` [HuLumino45, (E)-2-benzyl-6-styrylimidazo[1,2-a]pyrazin-3(7H)-one] were, in that order, 9.8 and 61.3.
The like results for `COCCCOc1ccc(-c2cn3c(=O)c(Cc4ccccc4)nc-3c(Cc3ccccc3)[nH]2)cc1` [BBlue2.3, reference compound] were, in that order, 34.3 and 51.5.
As to `COc1ccc(/C=C/c2cn3c(=O)c(Cc4ccccc4)nc-3c[nH]2)cc1` [HuLumino30, (E)-2-benzyl-6-(4-methoxystyryl)imidazo[1,2-a]pyrazin-3(7H)-one], the “BSA Luminescence intensity” value in experiment [1] amounted to 19.2. The “HSA Luminescence intensity” value in experiment [2] worked out at 154.
With `O=c1c(Cc2ccccc2)nc2c[nH]c(/C=C/c3ccc(-c4ccccc4)cc3)cn1-2` [HuLumino44, (E)-6-(2-([1,1′-biphenyl]-4-yl)vinyl)-2-benzylimidazo[1,2-a]pyrazin-3(7H)-one], the “BSA Luminescence intensity” value in experiment [1] was found to be 5.2. In experiment [4], the “S/N ratio relative to that of HuLumino12” value is “approximately 4 fold” and the S/N ratio worked out at 150. In addition, in experiment [2], the “HSA Luminescence intensity” value is recorded as 206.
With `COc1ccc(-c2cn3c(=O)c(C)nc-3c[nH]2)cc1` [MCLA™, reference compound], in experiment [1], the “BSA Luminescence intensity” value was 1.8. Also, in experiment [2], the “HSA Luminescence intensity” value was determined as 14.1.
